According to ChEMBL document CHEMBL1201862, “PubChem BioAssay data set” (2004):
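96-well plates; 48 h exposure; 5 concentrations. Endpoints by linear interpolation between flanking doses. Not reached: highest tested concentration assigned. Here, GI50 denotes the concentration required for 50% inhibition of growth.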 Calls of active or inactive are those of the source. Cut-off read from the data, not from the text of the source: active = GI50 up to about 1.1 µM and inactive = higher.

Legend:
Experiment in all cases: NCI anticancer screen, dose series, 48 h
786-0 = system: 786-0
BT-549 = system: BT-549
CAKI-1 = system: CAKI-1
HCT-116 = system: HCT-116
KM12 = system: KM12
MDA-MB-231 = system: MDA-MB-231
NCI-H226 = system: NCI-H226
NCI/ADR-RES = system: NCI/ADR-RES
OVCAR-3 = system: OVCAR-3
PC-3 = system: PC-3
RXF 393 = system: RXF 393
SF-295 = system: SF-295
SK-MEL-2 = system: SK-MEL-2
SR = system: SR
SW-620 = system: SW-620
T47D = system: T47D
TK-10 = system: TK-10
UACC-62 = system: UACC-62
CCRF-CEM = system: CCRF-CEM

SMILES	GI50 (786-0)	GI50 (BT-549)	GI50 (CAKI-1)	GI50 (HCT-116)	GI50 (KM12)	GI50 (MDA-MB-231)	GI50 (NCI-H226)	GI50 (NCI/ADR-RES)	GI50 (OVCAR-3)	GI50 (PC-3)	GI50 (RXF 393)	GI50 (SF-295)	GI50 (SK-MEL-2)	GI50 (SR)	GI50 (SW-620)	GI50 (T47D)	GI50 (TK-10)	GI50 (UACC-62)	GI50 (CCRF-CEM)
Cc1cc(SCC(=O)c2ccccc2)nc2ccccc12	> 100 µM (inactive)	> 100 µM (inactive)	> 100 µM (inactive)	> 100 µM (inactive)	> 100 µM (inactive)	> 100 µM (inactive)	> 100 µM (inactive)	> 100 µM (inactive)	41.2 µM (inactive)	> 100 µM (inactive)	> 100 µM (inactive)	> 100 µM (inactive)	> 100 µM (inactive)	> 100 µM (inactive)	> 100 µM (inactive)	> 100 µM (inactive)	> 100 µM (inactive)	> 100 µM (inactive)	–
c1ccc(-c2cc(-c3cc(-c4ccccn4)[nH]n3)n[nH]2)nc1	41.9 µM (inactive)	> 100 µM (inactive)	> 100 µM (inactive)	27.7 µM (inactive)	> 100 µM (inactive)	> 100 µM (inactive)	> 100 µM (inactive)	44.5 µM (inactive)	74.1 µM (inactive)	> 100 µM (inactive)	> 100 µM (inactive)	85.5 µM (inactive)	> 100 µM (inactive)	17.6 µM (inactive)	> 100 µM (inactive)	80.4 µM (inactive)	–	> 100 µM (inactive)	–
Cc1cccc2nc(-c3ccccc3)cc(=O)n12	> 100 µM (inactive)	85.5 µM (inactive)	–	> 100 µM (inactive)	> 100 µM (inactive)	> 100 µM (inactive)	30.1 µM (inactive)	44.9 µM (inactive)	> 100 µM (inactive)	43.7 µM (inactive)	51.8 µM (inactive)	> 100 µM (inactive)	–	87.5 µM (inactive)	> 100 µM (inactive)	14 µM (inactive)	68.7 µM (inactive)	44.1 µM (inactive)	> 100 µM (inactive)
Cc1cc(O)c2c(c1)C(=O)C=C(Br)C2=O	17.5 µM (inactive)	16.9 µM (inactive)	12.5 µM (inactive)	16.6 µM (inactive)	27.2 µM (inactive)	16.9 µM (inactive)	19.2 µM (inactive)	19.2 µM (inactive)	16.7 µM (inactive)	17.8 µM (inactive)	–	36 µM (inactive)	17.1 µM (inactive)	1.3 µM (inactive)	3.42 µM (inactive)	5.68 µM (inactive)	16.4 µM (inactive)	16.6 µM (inactive)	0.255 µM (active)
CCN(CC(O)COc1ccc2c(c1)[n+]([O-])nc(N)[n+]2[O-])C(C)=O (stereo unspecified)	> 100 µM (inactive)	> 100 µM (inactive)	> 100 µM (inactive)	97.9 µM (inactive)	> 100 µM (inactive)	> 100 µM (inactive)	> 100 µM (inactive)	> 100 µM (inactive)	> 100 µM (inactive)	> 100 µM (inactive)	–	> 100 µM (inactive)	> 100 µM (inactive)	> 100 µM (inactive)	> 100 µM (inactive)	20.2 µM (inactive)	> 100 µM (inactive)	49.7 µM (inactive)	72.4 µM (inactive)
O=C1/C(=C/c2cc3c(=O)c4ccccc4sc3s2)NC(=S)N1c1ccccc1	23.7 µM (inactive)	51.8 µM (inactive)	> 100 µM (inactive)	40.4 µM (inactive)	> 100 µM (inactive)	89.9 µM (inactive)	> 100 µM (inactive)	> 100 µM (inactive)	> 100 µM (inactive)	> 100 µM (inactive)	15.4 µM (inactive)	66.4 µM (inactive)	78.7 µM (inactive)	12.8 µM (inactive)	> 100 µM (inactive)	> 100 µM (inactive)	> 100 µM (inactive)	> 100 µM (inactive)	–
COC(=O)c1ccc(NCC2=CC(=O)C=CC2=O)cc1O	15.7 µM (inactive)	11.4 µM (inactive)	18.6 µM (inactive)	17.2 µM (inactive)	–	16.8 µM (inactive)	19.5 µM (inactive)	18.1 µM (inactive)	11.5 µM (inactive)	31.8 µM (inactive)	19.9 µM (inactive)	17.7 µM (inactive)	44.2 µM (inactive)	> 100 µM (inactive)	24.3 µM (inactive)	8.43 µM (inactive)	14.4 µM (inactive)	15.7 µM (inactive)	5.32 µM (inactive)
O=C1CC(c2ccccc2Cl)C2(C(=O)NC(=S)NC2=O)C(c2ccccc2Cl)C1 (stereo unspecified)	21.5 µM (inactive)	30.3 µM (inactive)	–	20 µM (inactive)	12.9 µM (inactive)	27.2 µM (inactive)	28.6 µM (inactive)	68.5 µM (inactive)	26.5 µM (inactive)	23.6 µM (inactive)	16.9 µM (inactive)	22.9 µM (inactive)	37.1 µM (inactive)	44 µM (inactive)	35.7 µM (inactive)	45.6 µM (inactive)	0.0302 µM (active)	19.8 µM (inactive)	35.6 µM (inactive)
CCN(C)c1nc(N(C)CC)c2nc(N(C)CC)nc(N(C)CC)c2n1	> 100 µM (inactive)	> 100 µM (inactive)	> 100 µM (inactive)	> 100 µM (inactive)	> 100 µM (inactive)	> 100 µM (inactive)	–	> 100 µM (inactive)	> 100 µM (inactive)	> 100 µM (inactive)	> 100 µM (inactive)	> 100 µM (inactive)	> 100 µM (inactive)	26.5 µM (inactive)	> 100 µM (inactive)	> 100 µM (inactive)	> 100 µM (inactive)	> 100 µM (inactive)	> 100 µM (inactive)
C=C1CC(C)(COc2ccc3c(C)c(Cl)c(=O)oc3c2)OC1=O (stereo unspecified)	1.35 µM (inactive)	1.31 µM (inactive)	0.59 µM (active)	0.408 µM (active)	3.65 µM (inactive)	3.53 µM (inactive)	2.83 µM (inactive)	2.35 µM (inactive)	2.89 µM (inactive)	2.52 µM (inactive)	–	6.12 µM (inactive)	1.44 µM (inactive)	0.865 µM (active)	0.461 µM (active)	0.361 µM (active)	0.942 µM (active)	1.39 µM (inactive)	0.331 µM (active)
C=C(C)C(=O)O[C@H]1C/C(CO)=C/CCC(=C)C(OC(C)=O)[C@H]2OC(=O)C(=C)[C@H]12 (stereo partly specified)	3.79 µM (inactive)	4.41 µM (inactive)	9.84 µM (inactive)	3.78 µM (inactive)	14.7 µM (inactive)	11.1 µM (inactive)	40.8 µM (inactive)	4.7 µM (inactive)	6.44 µM (inactive)	14.6 µM (inactive)	–	23.7 µM (inactive)	7.18 µM (inactive)	3.51 µM (inactive)	3.87 µM (inactive)	6.95 µM (inactive)	> 10 µM (inactive)	10.2 µM (inactive)	1.6 µM (inactive)
CCN(CCN(CC)C(=O)Nc1ccccc1)C(=O)Nc1ccccc1	> 100 µM (inactive)	> 100 µM (inactive)	–	> 100 µM (inactive)	–	> 100 µM (inactive)	> 100 µM (inactive)	> 100 µM (inactive)	–	> 100 µM (inactive)	> 100 µM (inactive)	> 100 µM (inactive)	> 100 µM (inactive)	> 100 µM (inactive)	> 100 µM (inactive)	> 100 µM (inactive)	> 100 µM (inactive)	> 100 µM (inactive)	> 100 µM (inactive)
CNC1C(OC2C(OC3C(O)C(O)C(O)C(O)C3O)OC(C)C2(O)CO)OC(CO)C(O)C1O.N=C(N)N.NC(=O)O (stereo unspecified)	> 100 µM (inactive)	> 100 µM (inactive)	–	> 100 µM (inactive)	> 100 µM (inactive)	> 100 µM (inactive)	> 100 µM (inactive)	> 100 µM (inactive)	> 100 µM (inactive)	> 100 µM (inactive)	> 100 µM (inactive)	> 100 µM (inactive)	> 100 µM (inactive)	> 100 µM (inactive)	> 100 µM (inactive)	> 100 µM (inactive)	> 100 µM (inactive)	> 100 µM (inactive)	> 100 µM (inactive)
O=C1NC(Cc2c[nH]c3ccccc23)C(=O)N2C(c3ccccc3)c3[nH]c4ccccc4c3C[C@@H]12 (stereo partly specified)	16.2 µM (inactive)	21.1 µM (inactive)	25.5 µM (inactive)	15.4 µM (inactive)	19.3 µM (inactive)	20.6 µM (inactive)	35.6 µM (inactive)	21.6 µM (inactive)	15.5 µM (inactive)	18.7 µM (inactive)	16 µM (inactive)	15.3 µM (inactive)	23.8 µM (inactive)	12.8 µM (inactive)	31.9 µM (inactive)	24.4 µM (inactive)	26.9 µM (inactive)	17.2 µM (inactive)	–
O=c1oc2cc(O)ccc2cc1-c1nc2ccccc2s1	22.8 µM (inactive)	16.9 µM (inactive)	22.9 µM (inactive)	21.8 µM (inactive)	42.3 µM (inactive)	23.7 µM (inactive)	–	18.7 µM (inactive)	16.3 µM (inactive)	22.8 µM (inactive)	31.7 µM (inactive)	54.1 µM (inactive)	21.8 µM (inactive)	25.8 µM (inactive)	12.2 µM (inactive)	31.3 µM (inactive)	30.1 µM (inactive)	7.21 µM (inactive)	10.4 µM (inactive)
